{"source": "patent US20090068286A1", "about": "“METHOD OF TREATING CANCER BY ADMINISTRATION OF 5-SUBSTITUTED NUCLEOSIDES” (RESprotect, GmbH, priority 2007, published 2009)", "key": {"STAT3": {"tested_on": "STAT3", "test": "Western Blot analysis of survival pathways: STAT3", "format": "cell-based", "conditions": "after DOX treatment, recovery phase: only BVDU given, no cytostatic", "protocol": "Different “survival pathways” were tested by means of Western Blot analysis. The analyses were implemented according to standard methods, as is described in Sambrook et al., 2001, Molecular Cloning (3rd ed.). Antibody dilutions: P-STAT3 (cell signaling) 1: 500, JUN-D (Santa Cruz, Calif.) 1: 1,000.\nThe densitometrically determined content of oncogene proteins JUN-D and STAT3 was reduced by a quarter or two thirds after DOX treatment in the recovery phase (r=recovery phase). In the “recovery” only BVDU is given, no cytostatic."}, "[1]": {"tested_on": "Yoshida AH13r hepatoma cells", "test": "Growth of s.c. Yoshida AH13r hepatoma tumors in SD-rats", "format": "in vivo, rat", "protocol": "Ten SD-rats per treatment group were given a single s.c. injection of ascites Yoshida AH13r hepatoma cells. Five to 7 days after tumor application, the growth of the resulting tumors (at the injection site) was suppressed by i.p. treatment of the animals with cisplatin, doxorubicin or cyclophosphamide, or by additional oral treatment with 15 mg/kg BVDU (15 times within 3 weeks)."}}}
{"compound": "O=c1[nH]c(=O)n([C@H]2C[C@H](O)[C@@H](CO)O2)cc1/C=C/Br", "note": "[BVDU, (E)-5-(2-bromovinyl)-2′-deoxyuridine]", "values": [{"measurement": "Reduction of STAT3 protein content (densitometry)", "setting": "STAT3", "result": "approximately two thirds"}, {"measurement": "Effect on tumor size", "setting": "[1]; BVDU 50 mg/kg given only on the same day as cisplatin, no recovery phase", "result": "only weak"}, {"measurement": "Effect on tumor size", "setting": "[1]; BVDU 15 times alone in the recovery phase, one time together with cyclophosphamide", "result": "strong effect"}, {"measurement": "Effect on tumor size", "setting": "[1]; BVDU alone or in combination with DOX, recovery phase 6× one day", "result": "strong effect"}, {"measurement": "Influence on the growth of rat tumors", "setting": "[1]; BVDU given alone, oral", "result": "no influence"}, {"measurement": "Effect on tumor size", "setting": "[1]; BVDU with CIS, recovery phase 4×3 or 2 days", "result": "very strong"}]}
